Where two headings read alike, the source gives them in different places.
B1: AB205-ADL12-D2 (conjugate)
heavy: QVQLQQSGSELMMPGASVKISCKATGYTFSNYWIQRPGHGLEWIGEILPGTGRTIYNEKFKGKATFTADISSNTVQMQLSSLTSEDSAVYYCARRDYYGNFYYAMDYWGQGTSVTVSSAKTTPPSVYPLAPGSAAQTNSMVTLGCLVKGYFPEPVTVTWNSGSLSSGVHTFPAVLQSDLYTLSSSVTVPSSTWPSETVTCNVAHPASSTKVDKKIVPRDCGCKPCICTVPEVSSVFIFPPKPKDVLTITLTPKVTCVVVDISKDDPEVQFSWFVDDVEVHTAQTQPREEQFNSTFRSVSELPIMHQDWLNGKEFKCRVNSAAFPAPIEKTISKTKGRPKAPQVYTIPPPKEQMAKDKVSLTCMITDFFPEDITVEWQWNGQPAENYKNTQPIMDTDGSYFVYSKLNVQKSNWEAGNTFTCSVLHEGLHNHHTEKSLSHSPG
light: DIQMTQSTSSLSASLGDRVTISCSASQGINNYLNWYQQKPDGTVELLIYYTSTLQSGVPSRFSGSGSGTDYSLTISNLEPEDIGTYYCQQYSKLPRTFGGGTKLEIKRADAAPTVSIFPPSSEQLTSGGASVVCFLNNFYPKDINVKWKIDGSERQNGVLNSWTDQDSKDSTYSMSSTLTLTKDEYERHNSYTCEATHKTSTSPIVKSFNRNEC
B2: AB205-ADL1-D14 (conjugate)
heavy: B1 heavy
light: B1 light
B3: AB205-ADL5-D19 (conjugate)
heavy: B1 heavy
light: B1 light
B4: AB205-ADL5-D15 (conjugate)
heavy: B1 heavy
light: B1 light
B5: AB205-ADL10-D1 (conjugate)
heavy: B1 heavy
light: B1 light
B6: AB205-ADL1-D4 (conjugate)
heavy: B1 heavy
light: B1 light
B7: AB205-ADL5-D25 (conjugate)
heavy: B1 heavy
light: B1 light
B8: AB205-ADL1-D1 (conjugate)
heavy: B1 heavy
light: B1 light

Assays:
[1] = Caco-2 permeability of ADC payload; assay type: in vitro ADME; details: human; for Papp B→A at 2 h, 10 NM: basolateral to apical, read-out: Permeability Mean Caco-2 B-A Perm (10e−G cm/s)
Description: Integrity of cell monolayer was confirmed by TEER (transepithelial electrical resistance) and Lucifer yellow. Payloads were spiked in duplicate at 10 NM, separately, on both sides of the cell monolayer. Permeability rates from the apical to basolateral (A-B) direction and the basolateral to apical (B-A) direction were determined by sampling aliquots from both chambers immediately after treatment (t=0) and following incubation for 2 hours. Samples were protein precipitated with organic solvent containing internal standard and analyzed by LC-MS/MS (SCIEX; API 5500). The area ratio responses of payload/internal standard over time in both directions were used to generate permeability (cm/sec) values.

[2] = tested on: THP1.1; experiment: Payload cell potency and lethality CTGlo 72 h, THP1.1; assay type: cell-based; details: unconjugated payload; for GI50: payload cell potency and lethality
[3] = Chemical stability of ADC payload, pH 5.5 buffer; assay type: physicochemical; details: for half-life at 20 μM: McIlvaine (citrate-phosphate) buffer, unconjugated payload, Citrate-Phosphate buffer pH 5.5, 37° C., read-out: Stability Mean Stability t1/2 pH5.5 (converted); for pH 5.5 Stability (t1/2, 37 C.): pH 5.5, 37 C., corresponding payload
Description: (Eppendorf ThermoMixer). […] Time 0 was set to 100.

[4] = tested on: MOLP8 cells; experiment: Cell viability CellTiter-Glo, MOLP8 (CD138-expressing); assay type: cell-based
Description: (§1) HCC1954 (American Type Culture Collection (ATCC)) breast ductal carcinoma cells were plated at 2000 cells/well in flat bottom 96-well tissue culture plates (Corning) in a total volume of 90 μL tissue culture medium supplemented with 10% fetal bovine serum (ThermoFisher Scientific). Cells were treated with a 3-fold serial dilution of compound from 200 nM to 0.03 nM. Each concentration was tested in triplicate. At the time of treatment, a plate of untreated cells was evaluated using CellTiter-Glo®2.0 Luminescent Cell Viability Assay according to the manufacturers recommendations (Promega; #G9241). CellTiter-Glo® 2.0 reagent was added to the medium, incubated, and assayed on an EnVision Multilabel Reader (PerkinElmer). Values represent time zero (T0). […] Percentage growth inhibition was calculated as: [(T144−T0)/(C−T0)]×100 for concentrations for which T144>/=T0 or [(T144−T0)/T0]×100 for concentrations for which T144<T0. The dose response curve plots were generated using Prism 7 (Graphpad) and fit using nonlinear regression analysis and the log(inhibitor) versus response-variable slope (four parameters).
(§2) Anti-CD138 ADCs were tested in the CD138-expressing MOLP8 multiple myeloma cell line. Similarly, anti-EPHA2 ADCs were tested in the EPHA2-expressing PC3 prostate cancer cell line.

[5] = tested on: N87 cells; experiment: Cell viability CellTiter-Glo, N87; assay type: cell-based, human; details: unconjugated payload of the ADC; for GI50: Homo sapiens
Description: as §1
(§3) HCC1954 (ATCC), 2000 cells/well), N87 (ATCC, 4000 cells/well), SKBR3 (ATCC, 3000 cells/well), and MCF7 (ATCC, 1500 cells/well) cell lines were used.

[6] = tested on: PC3 cells; experiment: Cell viability CellTiter-Glo, PC3 (EPHA2-expressing); assay type: cell-based; details: for GI50: Homo sapiens, PC-3, free payload of the ADC
Description: as §1, §2

[7] = tested on: MCF7 cells; experiment: Cell viability CellTiter-Glo, MCF7 (HER2-negative); assay type: cell-based; details: Homo sapiens, unconjugated payload of the ADC
Description: as §1, §3

[8] = tested on: HCC1954 cells; experiment: Cell viability CellTiter-Glo, HCC1954; details: Homo sapiens, HCC1954, read-out: Payload GI50 (nM)
[9] = Caco-2, unconjugated payload, apical to basolateral, 2 hours, read-out: Permeability Mean Caco-2 A-B Perm (10e−6 cm/s)
[10] = Caco-2, unconjugated payload, 2 hours
[11] = Caco-2, A-B, corresponding payload (Table 26), read-out: Permeability Caco-2 A-B (10e−6 cm/s)
[12] = unconjugated payload of the ADC
[13] = anti-CD138 ADC, read-out: SMLA GI50

| Molecule | Papp A→B at 2 h, 10 NM [1, 9] | Papp B→A at 2 h, 10 NM [1, 10] | CTGlo-AT S Mean Min-Response % 72 h THP1.1 [2] | GI50 [2] | half-life at 20 μM [3] | SMLA LD50 ([4]; anti-CD138 ADC) | SMLA Rmin (%) ([4]; anti-CD138 ADC) | GI50 [4, 13] | also measured |
| --- | --- | --- | --- | --- | --- | --- | --- | --- | --- |
| CC[C@H](O)[C@@H](C)[C@H]1O[C@@H]1C[C@H](C)/C=C/C=C(\C)[C@H]1OC(=O)C[C@H](O)CC[C@@](C)(OC(=O)N2CCNCC2)[C@@H](OC(C)=O)/C=C/[C@@H]1C [D13] | 0.9 ×10⁻⁶ cm/s | 17.2 ×10⁻⁶ cm/s | −99.941% | 0.892 nM | < 24 h |  |  |  |  |
| CC[C@H](O)[C@@H](C)[C@H]1O[C@@H]1C[C@@](C)(O)/C=C/C=C(\C)[C@H]1OC(=O)C[C@H](O)CC[C@@](C)(OC)[C@@H](OC(=O)N2CCNC(CCC(=O)O)C2)/C=C/[C@@H]1C (stereo partly drawn) [D22, N-ethyl-N-isopropylpropan-3-(4-((((2S,3S,6S,7R,10R,E)-10-hydroxy-2-((R,2E,4E)-6-hydroxy-7-((2R,3R)-3-((2R,3S)-3-hydroxypentan-2-yl)oxiran-2-yl)-6-methylhepta-2,4-dien-2-yl)-7-methoxy-3,7-dimethyl-12-oxooxacyclododec-4-en-6-yl)oxy)carbonyl)piperazin-2-yl)propanoic acid] | 0.14 ×10⁻⁶ cm/s | 0.16 ×10⁻⁶ cm/s | −78.119% |  |  |  |  |  |  |
| CC[C@H](O)[C@@H](C)[C@H]1O[C@@H]1C[C@@](C)(O)/C=C/C=C(\C)[C@H]1OC(=O)C[C@H](O)CC[C@@](C)(OC)[C@@H](OC(=O)N(C)CCNC)/C=C/[C@@H]1C [D20, (2S,3S,6S,7R,10R,E)-10-hydroxy-2-((R,2E,4E)-6-hydroxy-7-((2R,3R)-3-((2R,3S)-3-hydroxypentan-2-yl)oxiran-2-yl)-6-methylhepta-2,4-dien-2-yl)-7-methoxy-3,7-dimethyl-12-oxooxacyclododec-4-en-6-yl methyl(2-(methylamino)ethyl)carbamate] | 0.16 ×10⁻⁶ cm/s | 0.38 ×10⁻⁶ cm/s | −100.664% | 28.336 nM | > 168 h |  |  |  |  |
| C/C(=C\c1cc(F)cc(N2CCN(C(=O)Cn3cccn3)CC2)c1)[C@H]1OC(=O)C[C@H](O)CC[C@H](C)[C@@H](OC(=O)N2CCNCC2)/C=C/[C@@H]1C [D16] | 0.72 ×10⁻⁶ cm/s | 23.3 ×10⁻⁶ cm/s | −99.681% | 2.975 nM | > 168 h |  |  |  | Papp A→B at 2 h, 10 NM [1, 11]: 0.72 ×10⁻⁶ cm/s; pH 5.5 Stability (t1/2, 37 C.) [3]: 7 |
| CC(=O)N1CCC(n2nnc3c(F)cc(/C=C(\C)[C@H]4OC(=O)C[C@H](O)CC[C@H](C)[C@@H](OC(=O)N5CCNCC5)/C=C/[C@@H]4C)cc32)CC1 [D14] | 0.06 ×10⁻⁶ cm/s | 12.1 ×10⁻⁶ cm/s | −99.209% | 3.584 nM | > 168 h |  |  |  | GI50 ([4]; Homo sapiens, MOLP-8, unconjugated payload of the ADC, read-out: Payload GI50): 1.9 nM; Payload LD50 [4, 12]: 8.5 nM; Payload Rmin (%) [4, 12]: −61%; GI50 [5]: 2.92 nM; Payload Rmin (%) [5]: −52.662%; GI50 [6]: 3.88 nM; Payload Rmin (%) ([6]; free payload of the ADC): −79.835%; GI50 [7]: 5.29 nM |
| C/C(=C\c1cccc(S(=O)(=O)N2CCCC2)c1)[C@H]1OC(=O)C[C@H](O)CC[C@H](C)[C@@H](OC(=O)N2CCN(C)CC2)/C=C/[C@@H]1C [D34] |  |  |  |  |  |  |  |  | Papp A→B at 2 h, 10 NM [1, 11]: 26 ×10⁻⁶ cm/s; pH 5.5 Stability (t1/2, 37 C.) [3]: 7 |
| C/C(=C\c1cc(F)cc(N2CCN(CC(=O)O)CC2)c1)[C@H]1OC(=O)C[C@H](O)CC[C@H](C)[C@@H](OC(=O)N2CCNCC2)/C=C/[C@@H]1C [D33, 2-(4-(3-fluoro-5-((E)-2-((2S,3S,6R,7S,10R,E)-10-hydroxy-3,7-dimethyl-12-oxo-6-((piperazine-1-carbonyl)oxy)oxacyclododec-4-en-2-yl)prop-1-en-1-yl)phenyl)piperazin-1-yl)acetic acid] | 0.13 ×10⁻⁶ cm/s | 0.53 ×10⁻⁶ cm/s | −53.128% | 195.752 nM |  |  |  |  |  |
| CC[C@H](O)[C@@H](C)[C@H]1O[C@@H]1C[C@H](C)/C=C/C=C(\C)[C@H]1OC(=O)C[C@H](O)CC[C@@](C)(OC)[C@@H](OC(=O)N2CCNCC2)/C=C/[C@@H]1C [D18, (2S,3S,6S,7R,10R,E)-10-hydroxy-2-((S,2E,4E)-7-((2R,3R)-3-((2R,3S)-3-hydroxypentan-2-yl)oxiran-2-yl)-6-methylhepta-2,4-dien-2-yl)-7-methoxy-3,7-dimethyl-12-oxooxacyclododec-4-en-6-yl piperazine-1-carboxylate] | 1.19 ×10⁻⁶ cm/s | 27.4 ×10⁻⁶ cm/s | −99.621% | 0.863 nM |  |  |  |  | GI50 [8]: 0.208 nM; GI50 [5]: 0.275 nM; Payload Rmin (%) [5]: −92.127%; GI50 [7]: 0.883 nM |
| C/C(=C\c1cc(F)cc(N2CCN(C(=O)Cn3cccn3)CC2)c1)[C@H]1OC(=O)C[C@H](O)CC[C@H](C)[C@@H](OC(=O)N2CCN(C)CC2)/C=C/[C@@H]1C [D26] | 16 ×10⁻⁶ cm/s | 41.1 ×10⁻⁶ cm/s | −99.401% |  | > 168 h |  |  |  |  |
| CC[C@H](O)[C@@H](C)[C@H]1O[C@@H]1C[C@H](C)/C=C/C=C(\C)[C@H]1OC(=O)C[C@H](O)CC[C@@](C)(OC)[C@@H](OC(=O)N2CCN(C)CC2)/C=C/[C@@H]1C [D19, (2S,3S,6S,7R,10R,E)-10-hydroxy-2-((S,2E,4E)-7-((2R,3R)-3-((2R,3S)-3-hydroxypentan-2-yl)oxiran-2-yl)-6-methylhepta-2,4-dien-2-yl)-7-methoxy-3,7-dimethyl-12-oxooxacyclododec-4-en-6-yl 4-methylpiperazine-1-carboxylate] |  |  |  |  |  |  |  |  | GI50 ([4]; Homo sapiens, MOLP-8, unconjugated payload of the ADC in the row, read-out: Payload GI50): 0.84 nM; Papp A→B at 2 h, 10 NM [1, 11]: 16 ×10⁻⁶ cm/s; pH 5.5 Stability (t1/2, 37 C.) [3]: 0.8; GI50 [6]: 1.41 nM; Payload LD50 ([6]; free payload of the ADC): >400 nM; Payload Rmin (%) ([6]; free payload of the ADC): −29.33% |
| CC[C@H](O)[C@@H](C)[C@H]1O[C@@H]1C[C@@](C)(O)/C=C/C=C(\C)[C@H]1OC(=O)C[C@H](O)CC[C@@](C)(O)[C@@H](OC(=O)N2CCN(C3CCCCCC3)CC2)/C=C/[C@@H]1C [D11, E7107] | 0.87 ×10⁻⁶ cm/s | 10.6 ×10⁻⁶ cm/s | −100.481% |  | 90 h |  |  |  |  |
| B1 |  |  |  |  |  | >400 nM | −53.125% | < 0.061 nM |  |
| B2 |  |  |  |  |  | >400 nM | −74.008% | < 0.061 nM |  |
| B3 |  |  |  |  |  | >400 nM | −46.23% | < 0.061 nM |  |
| B4 |  |  |  |  |  | >400 nM | 2.419% | 0.258 nM |  |
| B5 |  |  |  |  |  | >400 nM | −25.099% |  |  |
| B6 |  |  |  |  |  | 0.535 nM | −99.306% | < 0.061 nM |  |
| B7 |  |  |  |  |  | 11.669 nM | −76.736% | < 0.061 nM |  |
| B8 |  |  |  |  |  | 0.656 nM | −100.099% | < 0.061 nM |  |

From patent US11945807B2, “Splicing modulator antibody-drug conjugates and methods of use” (EISAI R&D MANAGEMENT CO., LTD., priority 2018, dated 2024)
